Experimental data reported in US20240018145A1, “[…]-DEPENDENT EN[…] TREATING OR […]” (priority 2020, published 2024).

Tested on: FLU A (PR/8/34)
Assay: Flu A Neuraminidase Antiviral Assay
Format: cell-based
Conditions: not given

SMILES	EC50 [nM]
CN1C(=O)c2c(O)c(=O)ccn2N2C(c3ccccc3)CCCC12 (single isomer, unassigned) [Compound 1A, 7-hydroxy-5-methyl-1-phenyl-1,2,3,4,4a,5-hexahydrodipyrido[1,2-b:2′,1′-f][1,2,4]triazine-6,8-dione]	> 8100
CN1C(=O)c2c(O)c(=O)ccn2N2C(c3ccccc3)CCCC12 (single isomer, unassigned) [Compound 1B, 7-hydroxy-5-methyl-1-phenyl-1,2,3,4,4a,5-hexahydrodipyrido[1,2-b:2′,1′-f][1,2,4]triazine-6,8-dione]	39.6
CN1C(=O)c2c(O)c(=O)ccn2N2C(c3ccc(F)cc3)CCCC12 (single isomer, unassigned) [Compound 2A, 1-(4-fluorophenyl)-7-hydroxy-5-methyl-1,2,3,4,4a,5-hexahydrodipyrido[1,2-b:2′,1′-f][1,2,4]triazine-6,8-dione]	109
CN1C(=O)c2c(O)c(=O)ccn2N2C(c3ccc(F)cc3)CCCC12 (single isomer, unassigned) [Compound 2B, 1-(4-fluorophenyl)-7-hydroxy-5-methyl-1,2,3,4,4a,5-hexahydrodipyrido[1,2-b:2′,1′-f][1,2,4]triazine-6,8-dione]	5920
CN1C(=O)c2c(O)c(=O)ccn2N2C(c3ccc(Cl)c(F)c3)CCCC12 (single isomer, unassigned) [Compound 3A, 1-(4-chloro-3-fluorophenyl)-7-hydroxy-5-methyl-1,2,3,4,4a,5-hexahydrodipyrido[1,2-b:2′,1′-f][1,2,4]triazine-6,8-dione]	1020
CN1C(=O)c2c(O)c(=O)ccn2N2C(c3ccc(Cl)c(F)c3)CCCC12 (single isomer, unassigned) [Compound 3B, 1-(4-chloro-3-fluorophenyl)-7-hydroxy-5-methyl-1,2,3,4,4a,5-hexahydrodipyrido[1,2-b:2′,1′-f][1,2,4]triazine-6,8-dione]	> 2700
COCCN1C(=O)c2c(O)c(=O)ccn2N2C(c3ccc(F)cc3)CCCC12 (single isomer, unassigned) [Compound 4B, 1-(4-fluorophenyl)-7-hydroxy-5-(2-methoxyethyl)-1,2,3,4,4a,5-hexahydrodipyrido[1,2-b:2′,1′-f][1,2,4]triazine-6,8-dione]	> 8100
CN1C(=O)c2c(O)c(=O)ccn2N2C(c3cccc4ccccc34)CCCC12 (single isomer, unassigned) [Compound 5B, 7-hydroxy-5-methyl-1-(naphthalen-1-yl)-1,2,3,4,4a,5-hexahydrodipyrido[1,2-b:2′,1′-f][1,2,4]triazine-6,8-dione]	1700
CC1CC(c2ccccc2)N2C(C1)N(C)C(=O)c1c(O)c(=O)ccn12 (single isomer, unassigned) [Compound 6A, 7-hydroxy-3,5-dimethyl-1-phenyl-1,2,3,4,4a,5-hexahydrodipyrido[1,2-b:2′,1′-f][1,2,4]triazine-6,8-dione]	372
CC1CC(c2ccccc2)N2C(C1)N(C)C(=O)c1c(O)c(=O)ccn12 (single isomer, unassigned) [Compound 6B, 7-hydroxy-3,5-dimethyl-1-phenyl-1,2,3,4,4a,5-hexahydrodipyrido[1,2-b:2′,1′-f][1,2,4]triazine-6,8-dione]	7760
CN1C(=O)c2c(O)c(=O)ccn2N2C(c3c(F)cccc3F)CCCC12 (single isomer, unassigned) [Compound 7A, 1-(2,6-difluorophenyl)-7-hydroxy-5-methyl-1,2,3,4,4a,5-hexahydrodipyrido[1,2-b:2′,1′-f][1,2,4]triazine-6,8-dione]	> 8100
CN1C(=O)c2c(O)c(=O)ccn2N2C(c3c(F)cccc3F)CCCC12 (single isomer, unassigned) [Compound 7B, 1-(2,6-difluorophenyl)-7-hydroxy-5-methyl-1,2,3,4,4a,5-hexahydrodipyrido[1,2-b:2′,1′-f][1,2,4]triazine-6,8-dione]	256
CN1C(=O)c2c(O)c(=O)ccn2N2C(c3ccccc3F)CCCC12 (single isomer, unassigned) [Compound 8A, 1-(2-fluorophenyl)-7-hydroxy-5-methyl-1,2,3,4,4a,5-hexahydrodipyrido[1,2-b:2′,1′-f][1,2,4]triazine-6,8-dione]	> 8100
CN1C(=O)c2c(O)c(=O)ccn2N2C(c3ccccc3F)CCCC12 (single isomer, unassigned) [Compound 8B, 1-(2-fluorophenyl)-7-hydroxy-5-methyl-1,2,3,4,4a,5-hexahydrodipyrido[1,2-b:2′,1′-f][1,2,4]triazine-6,8-dione]	65.6
CN1C(=O)c2c(O)c(=O)ccn2N2C(c3ccccc3)C3CCC(C3)C12 (single isomer, unassigned) [Compound 9A, 4-hydroxy-6-methyl-11-phenyl-6a,7,8,9,10,11-hexahydro-3H-7,10-methanopyrido[1′,2′:1,6][1,2,4]triazino[2,3-a]azepine-3,5(6H)-dione]	6210
CN1C(=O)c2c(O)c(=O)ccn2N2C(c3ccccc3)C3CCC(C3)C12 (single isomer, unassigned) [Compound 9B, 4-hydroxy-6-methyl-11-phenyl-6a,7,8,9,10,11-hexahydro-3H-7,10-methanopyrido[1′,2′:1,6][1,2,4]triazino[2,3-a]azepine-3,5(6H)-dione]	166
CN1C(=O)c2c(O)c(=O)ccn2N2C(c3ccccc3)C3CCC(C3)C12 (single isomer, unassigned) [Compound 9C, 4-hydroxy-6-methyl-11-phenyl-6a,7,8,9,10,11-hexahydro-3H-7,10-methanopyrido[1′,2′:1,6][1,2,4]triazino[2,3-a]azepine-3,5(6H)-dione]	> 8100
CN1C(=O)c2c(O)c(=O)ccn2N2C(c3ccccc3)C3CCC(C3)C12 (single isomer, unassigned) [Compound 9D, 4-hydroxy-6-methyl-11-phenyl-6a,7,8,9,10,11-hexahydro-3H-7,10-methanopyrido[1′,2′:1,6][1,2,4]triazino[2,3-a]azepine-3,5(6H)-dione]	> 8100
CN1C(=O)c2c(O)c(=O)ccn2N2C(c3cccc(F)c3)CCCC12 (single isomer, unassigned) [Compound 10A, 1-(3-fluorophenyl)-7-hydroxy-5-methyl-1,2,3,4,4a,5-hexahydrodipyrido[1,2-b:2′,1′-f][1,2,4]triazine-6,8-dione]	1610
CN1C(=O)c2c(O)c(=O)ccn2N2C(c3cccc(F)c3)CCCC12 (single isomer, unassigned) [Compound 10B, 1-(3-fluorophenyl)-7-hydroxy-5-methyl-1,2,3,4,4a,5-hexahydrodipyrido[1,2-b:2′,1′-f][1,2,4]triazine-6,8-dione]	86.5

Same assay, conditions: MDCK, 48 h

SMILES	EC50 [nM]
COCCN1C(=O)c2c(O)c(=O)ccn2N2C(c3ccc(F)cc3)CCCC12 (single isomer, unassigned) [Compound 4A, 1-(4-fluorophenyl)-7-hydroxy-5-(2-methoxyethyl)-1,2,3,4,4a,5-hexahydrodipyrido[1,2-b:2′,1′-f][1,2,4]triazine-6,8-dione]	> 8100
CN1C(=O)c2c(O)c(=O)ccn2N2C(c3cccc4ccccc34)CCCC12 (single isomer, unassigned) [Compound 5A, 7-hydroxy-5-methyl-1-(naphthalen-1-yl)-1,2,3,4,4a,5-hexahydrodipyrido[1,2-b:2′,1′-f][1,2,4]triazine-6,8-dione]	1530
